Read-outs that look alike come from different tables or passages of the source.
Experiments:
[1] = test system: Key Grass and Sedge Weeds as well as Grass Crops; experiment: Post-emergent Test II herbicidal activity (Table 6); format: in vivo; details: post-emergence, 336 h; for pest or weed control at 70 g/ha: application rate 70 g ai/ha; for pest or weed control at 140 g/ha: application rate 140 g ai/ha
Summary of the method: (§1)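 Visual injury ratings (0 = no injury, 100 = complete kill) were taken 14 d after treatment, relative to untreated plants. Seedlings at the first–second true leaf stage received overhead spray at 187 L/ha; the highest rate was serially diluted to ½×, ¼×, ⅛× and 1/16×.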

[2] = test system: Key Broadleaf Weed and Crop Species; experiment: Post-emergent Test II herbicidal activity (Table 5); format: in vivo; details: post-emergence, 336 h, post-emergent, 14 days after application; for pest or weed control at 70 g/ha: 70 g ai/ha; for pest or weed control at 140 g/ha: 140 g ai/ha
Summary of the method: as §1

[3] = CYPES: yellow nutsedge (Cyperus esculentus), read-out: Visual Growth Reduction (%) 14 Days After Application, CYPES
[4] = DIGSA: crabgrass (Digitaria sanguinalis), read-out: Visual Growth Reduction (%) 14 Days After Application, DIGSA
[5] = ECHCG: barnyardgrass (Echinochloa crus-galli), read-out: Visual Growth Reduction (%) 14 Days After Application, ECHCG
[6] = ORYSA: rice (Oryza sativa), read-out: Visual Growth Reduction (%) 14 Days After Application, ORYSA
[7] = SETFA: giant foxtail (Setaria faberi), read-out: Visual Growth Reduction (%) 14 Days After Application, SETFA
[8] = SORVU: grain sorghum (Sorghum vulgare), read-out: Visual Growth Reduction (%) 14 Days After Application, SORVU
[9] = TRZSS (wheat, Triticum aestivum), read-out: Visual Growth Reduction (%) 14 Days After Application, TRZSS
[10] = ZEAMX: maize, corn (Zea mays), read-out: Visual Growth Reduction (%) 14 Days After Application, ZEAMX
[11] = ABUTH: velvetleaf (Abutilon theophrasti), read-out: Visual Growth Reduction (%) 14 Days After Application ABUTH
[12] = AMARE: redroot pigweed (Amaranthus retroflexus), read-out: Visual Growth Reduction (%) 14 Days After Application AMARE
[13] = BRSNN: oilseed-rape, canola (Brassica napus), read-out: Visual Growth Reduction (%) 14 Days After Application BRSNN
[14] = CHEAL: lambsquarters (Chenopodium album), read-out: Visual Growth Reduction (%) 14 Days After Application CHEAL
[15] = EPHHL: wild poinsettia (Euphorbia heterophylla), read-out: Visual Growth Reduction (%) 14 Days After Application EPHHL
[16] = HELAN: sunflower (Helianthus annuus), read-out: Visual Growth Reduction (%) 14 Days After Application HELAN
[17] = VIOTR: wild pansy (Viola tricolor), read-out: Visual Growth Reduction (%) 14 Days After Application VIOTR

`C=Cc1c(N)nc(-c2ccc(I)cc2)nc1C(=O)O` [Compound 123, 6-Amino-2-(4-iodophenyl)-5-vinylpyrimidine-4-carboxylic acid] showed a pest or weed control at 70 g/ha [1, 3] of 0 to 29%, a pest or weed control at 140 g/ha [1, 3] of 45 to 59% and a pest or weed control at 70 g/ha [1, 4] of 0 to 29%. For the same molecule, the pest or weed control at 140 g/ha [1, 4] was 0 to 29%, the pest or weed control at 70 g/ha [1, 5] was 75 to 84% and the pest or weed control at 140 g/ha [1, 5] was 85 to 94%. The pest or weed control at 70 g/ha [1, 6] was 0 to 29%, the pest or weed control at 140 g/ha [1, 6] was 0 to 29% and the pest or weed control at 70 g/ha [1, 7] was 0 to 29%. The pest or weed control at 140 g/ha [1, 7] was 0 to 29%, the pest or weed control at 70 g/ha [1, 8] was 30 to 44% and the pest or weed control at 140 g/ha [1, 8] was 30 to 44%. For the same molecule, the pest or weed control at 70 g/ha [1, 9] was 0 to 29%, the pest or weed control at 140 g/ha [1, 9] was 0 to 29% and the pest or weed control at 70 g/ha [1, 10] was 45 to 59%. It also gave a pest or weed control at 140 g/ha [1, 10] of 60 to 74%, a melting point of 187 to 190 °C and a pest or weed control at 70 g/ha [2, 11] of 0 to 29%. It also gave a pest or weed control at 140 g/ha [2, 11] of 0 to 29%, a pest or weed control at 70 g/ha [2, 12] of 95 to 100% and a pest or weed control at 140 g/ha [2, 12] of 95 to 100%. The pest or weed control at 70 g/ha [2, 13] was 0 to 29%, the pest or weed control at 140 g/ha [2, 13] was 60 to 74% and the pest or weed control at 70 g/ha [2, 14] was 0 to 29%. For the same molecule, the pest or weed control at 140 g/ha [2, 14] was 0 to 29%, the pest or weed control at 70 g/ha [2, 15] was 95 to 100% and the pest or weed control at 140 g/ha [2, 15] was 95 to 100%. It also gave a pest or weed control at 70 g/ha [2, 16] of 75 to 84%, a pest or weed control at 140 g/ha [2, 16] of 75 to 84% and a pest or weed control at 70 g/ha [2, 17] of 0 to 29%. The pest or weed control at 140 g/ha [2, 17] was 45 to 59%.

Reference: patent US9113629B2, “4-amino-6-(4-substituted-phenyl)-picolinates and 6-amino-2-(4-substituted-phenyl)-pyrimidine-4-carboxylates and their use as herbicides” (DOW AGROSCIENCES LLC, priority 2013, dated 2015)
